Source: US9969696B2, “Compounds as inhibitor of DNA double-strand break repair, methods and applications thereof” (INDIAN INSTITUTE OF SCIENCE, priority 2012, dated 2018)

Experiments:
[1] = molecular target: T1, DNA binding domain (DBD) of Ligase IV (Homo sapiens, UniProt P49917); assay: CD spectroscopy, DBD of Ligase IV; conditions: 200-260 nm
T1 construct: Ligase IV or DBD of Ligase IV alone is overexpressed, purified; made in house
T1 sequence (P49917 1-251 limits assumed): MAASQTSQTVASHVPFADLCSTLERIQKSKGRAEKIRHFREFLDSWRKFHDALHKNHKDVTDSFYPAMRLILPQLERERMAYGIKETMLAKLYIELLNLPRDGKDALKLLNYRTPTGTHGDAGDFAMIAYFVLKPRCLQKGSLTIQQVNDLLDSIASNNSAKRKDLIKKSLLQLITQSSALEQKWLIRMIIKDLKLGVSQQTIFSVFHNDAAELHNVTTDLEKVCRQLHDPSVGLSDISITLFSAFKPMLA
Experimental: (§1) A. Western blot analysis of KU70 and KU80 proteins in purified fractions. W is wash, 1, 2 and 3 are different fractions. B. Binding of KU proteins to DNA breaks. [−γ^32P]ATP end-labeled oligomeric DNA substrate containing DSB is incubated for about 30 min on ice with purified KU or Ligase IV/XRCC4 complex. For Ligase IV/XRCC4 supershift, first KU and DNA are incubated followed by addition of Ligase IV/XRCC4 (about 60 fmol). Reaction mixture is resolved on 1-6% native gradient PAGE. C. […] After preincubation of KU with DNA substrates, Ligase IV/XRCC4 complex (about 60 fmol) and increasing concentrations of inhibitor (10, 50, 100, 200, 500 and 700µM) are added, incubated and products are resolved on a gradient native PAGE. D-1 and D-2. […] CD spectra are obtained at a wavelength of 200-260 nm for […]

A549 = assay: MTT assay, A549; format: cell-based; conditions: Homo sapiens
[2] = Solubility (characterisation data)
[3] = system: breast adenocarcinoma induced tumor; assay: Breast adenocarcinoma (EAC) solid tumor model in mice; format: in vivo; conditions: about 10 mg/kg, 6 doses, intramuscular, vs untreated controls
From the text: Data shown is from three independent batches of experiments containing 8 animals each. […] B-1 and B-2. […] Data shown is from two independent batches of experiments containing 10 animals each. […] C.

Ligase IV = molecular target: T2, Ligase IV (Homo sapiens, UniProt P49917); assay: CD spectroscopy, Ligase IV; format: binding; conditions: 200-260 nm
T2 construct: made in house
T2 sequence (P49917 1-911): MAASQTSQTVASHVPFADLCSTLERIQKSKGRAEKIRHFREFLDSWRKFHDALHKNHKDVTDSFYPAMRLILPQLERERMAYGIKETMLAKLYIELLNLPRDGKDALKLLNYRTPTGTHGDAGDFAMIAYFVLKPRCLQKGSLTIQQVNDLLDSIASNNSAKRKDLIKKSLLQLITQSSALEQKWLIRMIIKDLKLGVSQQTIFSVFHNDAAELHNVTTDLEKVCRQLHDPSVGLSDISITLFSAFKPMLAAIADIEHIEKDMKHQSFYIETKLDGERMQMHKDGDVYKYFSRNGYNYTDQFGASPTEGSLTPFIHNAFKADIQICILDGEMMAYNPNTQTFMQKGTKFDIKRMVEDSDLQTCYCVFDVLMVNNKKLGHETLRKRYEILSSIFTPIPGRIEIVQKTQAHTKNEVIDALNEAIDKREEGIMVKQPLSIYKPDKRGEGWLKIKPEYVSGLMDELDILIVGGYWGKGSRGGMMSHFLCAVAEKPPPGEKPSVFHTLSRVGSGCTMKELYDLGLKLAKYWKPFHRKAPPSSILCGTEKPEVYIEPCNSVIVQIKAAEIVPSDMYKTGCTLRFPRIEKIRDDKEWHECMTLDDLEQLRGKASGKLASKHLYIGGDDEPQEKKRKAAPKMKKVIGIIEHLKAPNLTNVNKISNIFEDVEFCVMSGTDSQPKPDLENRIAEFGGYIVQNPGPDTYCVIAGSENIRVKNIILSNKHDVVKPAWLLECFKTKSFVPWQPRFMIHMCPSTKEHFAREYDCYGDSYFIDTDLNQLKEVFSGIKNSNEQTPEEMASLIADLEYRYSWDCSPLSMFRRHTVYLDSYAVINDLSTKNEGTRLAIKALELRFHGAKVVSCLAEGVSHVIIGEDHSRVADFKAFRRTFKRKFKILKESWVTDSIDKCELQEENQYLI
Experimental: as §1

HeLa = assay: MTT assay, HeLa; format: cell-based, human
A2780 = assay: MTT assay, A2780; format: cell-based; conditions: Homo sapiens
Ligase IV/XRCC4 complex = molecular target: T3, Ligase IV/XRCC4 complex (Homo sapiens, UniProt P49917); assay: DSB joining catalysed by purified Ligase IV/XRCC4 complex; format: biochemical; conditions: equimolar concentration of protein
T3 construct: made in house
T3 sequence (Q13426 whole entry partner, one chain of several): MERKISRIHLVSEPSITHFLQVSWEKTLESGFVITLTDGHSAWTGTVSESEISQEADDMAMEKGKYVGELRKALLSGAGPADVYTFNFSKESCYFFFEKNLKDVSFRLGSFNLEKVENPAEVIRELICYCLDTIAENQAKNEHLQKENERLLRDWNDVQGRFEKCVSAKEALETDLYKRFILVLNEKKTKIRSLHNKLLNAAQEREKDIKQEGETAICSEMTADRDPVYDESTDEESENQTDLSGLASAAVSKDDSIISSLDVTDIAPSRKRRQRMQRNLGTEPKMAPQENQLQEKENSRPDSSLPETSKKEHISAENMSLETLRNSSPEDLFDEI
Experimental: A. Western blotting showing presence of Ligase IV/XRCC4 in eluted fractions. W is wash, 1 and 2 are different fractions. […] Concentrations of inhibitors used are indicated. For other details, FIG. 4 legend can be referred. C. […] Radiolabeled oligomeric DNA substrates containing 5′ compatible termini are then added to the reaction along with increasing concentrations of purified Ligase IV/XRCC4 complex (30, 60 and 120 fmol) and products are resolved on a PAGE. F. Bar diagram representing quantification of the complementation experiment performed on 5′-5′ and 5′-3′ noncomplementary ends. In all panels quantification of EJ based on 3 independent experiments is represented as mean±SEM.

[4] = molecular target: T4, Ligase IV/XRCC4 complex binding to DNA (Homo sapiens, UniProt P49917); assay: Gel supershift of Ligase IV/XRCC4 on KU:DNA complex; conditions: increasing concentrations 10-700 μM
T4 construct: made in house
T4 sequence (Q13426 whole entry partner, one chain of several): as above
Experimental: as §1

[5] = Assessment of side effects in mice; format: in vivo, BALB/c mice; conditions: six doses on six alternative days
From the text: Six doses of Compound 1 are administrated to the BALB/c (n=7) mice for six alternative days.
FIG. 11 depicts the assessment of side effects of Compound 1 treatment on mice. A. Bar graph represents average weight changes in the both the controls (n=10) and Compound 1 treated mice (n=7). In all the cases, error bars indicate mean±standard error mean (SEM). B. Serum profile on mice administered with Compound 1 at day 28. Values indicated are mean±SEM (n=10).

HT1080 = assay: MTT assay, HT1080; format: cell-based; conditions: Homo sapiens, HT-1080

Oc1nc(S)nc(/N=C/c2ccccc2)c1/N=C/c1ccccc1 [Compound 1, (5E,6E)-5,6-bis(benzylideneamino)-2-mercaptopyrimidin-4-ol]
CD spectrum of DBD upon addition of compound [1]: clear shift in the spectrum
IC50 (A549): ~35 µM
Solubility in dimethyl formamide (DMF), dimethyl sulfoxide (DMSO) ([2]; DMF, DMSO): soluble
Solubility in chloroform (CHCl3) ([2]; chloroform): Insoluble
Solubility in ethanol ([2]; ethanol): Partially soluble
Tumor progression [3]: significantly reduces breast adenocarcinoma induced tumor
CD spectrum of Ligase IV upon addition of compound (Ligase IV): clear shift in the spectrum
Effect on cell proliferation (MTT) (HeLa): dose-dependent effect on cell proliferation
IC50 (A2780): ~15 µM
Joining by purified Ligase IV (Ligase IV/XRCC4 complex): blocks joining
Band corresponding to Ligase IV/XRCC4 supershift on KU:DNA [4]: dose-dependent reduction
Side effects [5]: No side-effects are observed
IC50 (HT1080): ~60 µM
